# Like-named read-outs stand apart in the source and are kept apart here.
# Legend:
# DHODH = experiment: Rhesus monkey single oral dose PD (plasma DHO); assay type: in vivo, Rhesus monkeys; details: after single oral 10 mg/kg dose of PTC299, Rhesus monkey
# Protocol: (§1) FIG. 10 is a plot of PTC299 plasma concentration (µg/mL) vs hours of plasma dihydroorotate (DHO) and PTC299 concentrations after a single dose of PTC299 was administered to a single monkey.
# (§2) The dosing regimen used in the current study was also supported by experiments performed in Rhesus monkeys. Monkeys were given a single oral 10 mg/kg dose of PTC299. The DHO plasma level increased after dosing, peaked at 24 hours and then decreased, as illustrated in FIG. 10. […] The AUC for PTC299 is consistent with that observed in the healthy volunteer study PTC299-ONC-002-HV indicating this exposure would result in inhibition of DHODH and supports the use of the 200 mg BID dosing regimen in the current study.
# Rift Valley fever virus = experiment: microbe, parasite or virus in culture; assay type: cell-based; details: HeLa, read-out: EC50 Rift Valley fever virus
# [1] = system: primary acute myeloid leukemia (AML) blast cells; details: Cao 2020; cited from earlier work
# [2] = Cytotoxicity in Vero cells by intracellular ATP; details: African green monkey
# [3] = AML phase 1b study PTC299-HEM-001-LEU, PK; assay type: in vivo, human; details: 80 mg QD tablet loading dose for 7 days followed by 40 mg maintenance dose (cohort 2), AML patients
# Protocol: It was anticipated that elimination would not be saturated with 50 mg tablet QD after 7 days of 200 mg tablet BID dosing. This is supported by results from the ongoing AML open-label, non-randomized, phase 1b study, PTC299-HEM-001-LEU.
# [4] = Rhesus monkey single oral dose PK; assay type: in vivo, Rhesus monkeys; details: single oral 10 mg/kg dose
# Protocol: as §1, §2
# West Nile virus = experiment: Antiviral activity, West Nile virus (Vero cells); assay type: cell-based
# [5] = Clinical studies of PTC299 (oncology patients, healthy volunteers): tolerability; assay type: in vivo, human
# From the text: PTC299 has been extensively evaluated in 9 clinical studies; 5 were in oncology (n=134) and 4 were in healthy volunteers (n=169).
# The rationale for this dosing is based on the following: • The dosing regimen utilizes results from PTC’s extensive clinical, safety, and clinical pharmacology experience with the capsule formulation of PTC299 that was used in prior solid tumor clinical studies. • The tablet formulation has approximately 40% relative bioavailability compared with the capsule when administered with food. • The 200 mg BID dosing for 7 days have been tested previously in healthy volunteers in study PTC299-ONC-002-HV with no serious adverse events. […] The dosing of 200 mg BID for the first 7 days will raise the exposure of the drug quickly to accommodate the need for rapid onset of PTC299 activity..
# SARS-CoV-2 USA-WA1/2020 = experiment: PTC299 and remdesivir alone or combined, SARS-CoV-2 titer in Vero cells (TCID50); assay type: cell-based; details: 24 hours post infection
# PBMCs plus B cells (BT) = experiment: BioMAP profiling, BT system; assay type: cell-based; details: for inhibition at 0.01 µM: 10 nM; for inhibition at 0.1 µM: 100 nM
# Protocol: (§3) The effect of PTC299 on cytokine production was assessed using BioMAP profiling (BioSeek, now part of Eurofins). The BioMAP system is comprised of complex co-cultures of primary peripheral blood mononuclear cells (PBMCs) with other cell types including B cells, fibroblasts, and endothelial cells allowing for the measurement of physiologically relevant biomarker readouts of the activity of a compound. Using this system, cytokine production was evaluated in the following models of primary cell disease models: • Peripheral blood mononuclear cells (PBMCs) plus venular endothelial cells (sAg) • PBMCs plus B cells (BT) • PBMCs plus fibroblasts (HDFSAg) • TH2 cells plus venular endothelial cells (/TH2).
# (§4) Abbreviations in Table 4: BCR, B-cell receptor; BT System, co-culture of CD19+ B cells and PBMC that utilizes BCR stimulation and sub-mitogenic TCR stimulation; HDFSAg system, co-culture of human primary dermal fibroblasts and PBMC that is stimulated with sub-mitogenic TCR levels; IL, interleukin; PBMC, Peripheral Blood Mononuclear Cell; SAg system, co-culture of endothelial cells and PBMC stimulated with mitogenic levels of TCR ligands; TCR, T-cell receptor; /TH2 system, co-culture of endothelial cells and Th2 blasts stimulated with TCR ligands and cytokines; Th2, T helper type 2; VEGF, vascular endothelial growth factor.
# [6] = Study PTC299-ONC-007-NF2: PTC299 plasma level; details: human, oral, 100 mg BID
# [7] = In vivo rat micronucleus assay
# [8] = system: PBMCs plus venular endothelial cells (sAg); experiment: BioMAP profiling, SAg system; assay type: cell-based; details: for inhibition at 0.01 µM: 10 nM; for inhibition at 0.1 µM: 100 nM
# Protocol: as §3, §4
# Poliovirus = experiment: microbe, parasite or virus in culture; assay type: cell-based; details: Enterovirus C, HeLa, read-out: EC50 Poliovirus
# [9] = read-out: % Inhibition s-IL-17F
structure (smiles),measurement,setting,value
"COc1ccc([C@H]2c3[nH]c4ccc(Cl)cc4c3CCN2C(=O)Oc2ccc(Cl)cc2)cc1 [PTC299, 4-chlorophenyl (S)-6-chloro-1-(4-methoxyphenyl)-1,3,4,9-tetrahydro-2H-pyrido[3,4-b]indole-2-carboxylate]",AUC of plasma DHO,DHODH,71.4 µg·h/mL
same,EC50,Rift Valley fever virus,13 nM
same,effect on primary AML blast cells,[1],"caused a G1/S cell-cycle arrest, inhibition of proliferation, and cell death"
same,CC50 at 48 h,[2],> 10000 nM
same,time to steady state,[3],~15 days
same,AUC,"[4]; plasma, read-out: AUC of PTC299",22500 ng·h/mL
same,Cmax,"[4]; plasma, read-out: Cmax of PTC299",2510 ng/mL
same,half-life,"[4]; plasma, read-out: Half-life of PTC299 (converted)",33 h
same,Tmax of PTC299,[4],2 hr post-dose
same,EC50,West Nile virus,10 nM
same,tolerability across 9 clinical studies,"[5]; oncology n=134, healthy volunteers n=169, range of dosing regimens",generally well tolerated
same,dose-related hepatotoxicity,[5]; prior clinical studies,observed at higher doses and longer treatment durations (>85 days)
same,reduction in SARS-CoV-2 titer,SARS-CoV-2 USA-WA1/2020; PTC299 250 nM,96%
same,reduction in SARS-CoV-2 titer,SARS-CoV-2 USA-WA1/2020; PTC299 500 nM,98%
same,inhibition at 0.01 µM,PBMCs plus B cells (BT); read-out: % Inhibition s-IL-6,53%
same,inhibition at 0.01 µM,PBMCs plus B cells (BT); [9],58%
same,inhibition at 0.01 µM,PBMCs plus B cells (BT); read-out: % Inhibition sIL-17A,68%
same,inhibition at 0.01 µM,PBMCs plus B cells (BT); read-out: % Inhibition sIgG,97%
same,inhibition at 0.01 µM,PBMCs plus B cells (BT); read-out: % Inhibition sTNFa,49%
same,inhibition at 0.1 µM,PBMCs plus B cells (BT); read-out: % Inhibition s-IL-6,72%
same,inhibition at 0.1 µM,PBMCs plus B cells (BT); [9],74%
same,inhibition at 0.1 µM,PBMCs plus B cells (BT); read-out: % Inhibition sIL-17A,83%
same,inhibition at 0.1 µM,PBMCs plus B cells (BT); read-out: % Inhibition sIgG,98%
same,inhibition at 0.1 µM,PBMCs plus B cells (BT); read-out: % Inhibition sTNFa,66%
same,inhibition at 0.1 µM,"PBMCs plus B cells (BT); B-cell, read-out: % Inhibition B cell proliferation",31%
same,concentration at 4 h,[6],1900 ng/mL
same,in vivo rat micronucleus assay,[7],negative
same,inhibition at 0.01 µM,[8]; read-out: % Inhibition IL-8,27%
same,inhibition at 0.01 µM,[8]; read-out: % Inhibition MCP-1,31%
same,inhibition at 0.1 µM,[8]; read-out: % Inhibition CD40,29%
same,inhibition at 0.1 µM,[8]; read-out: % Inhibition IL-8,29%
same,inhibition at 0.1 µM,[8]; read-out: % Inhibition MCP-1,45%
same,inhibition at 0.1 µM,[8]; read-out: % Inhibition Proliferation,23%
same,EC50,Poliovirus,0.6 nM
